Test results: patent publication US8480995B2, “Use of sodium selenosulfate for supplementing selenium and enhancing the therapeutic efficacy of chemotherapy agents, and a rapid process for preparing sodium selenosulfate” (University of Science and Technology of China, priority 2007, dated 2013)

What was measured:
[1] = system: glutathione S-transferase (GST); experiment: Se-supplementing effect in Se-deficient mice: GST activity in liver; assay type: in vivo; settings: relative to control 1.00 (control 4071.4 unit/mg protein), mean±SD
Procedure: (§1) It has been reported that high doses of sodium selenite can reduce the symptom of severely ill patient and enhance the therapeutic efficacy of chemotherapy agents for cancers. It remains unknown whether there are differences regarding the Se-supplementing effect between sodium selenosulfate and sodium selenite at pharmacologic doses. In this example, Se-deficient mice were intraperitoneally injected with sodium selenite and sodium selenosulfate at doses of 0.5 and 1 mg Se/kg for a week. The enzyme activity and selenium were measured to compare the Se-supplementing effect between the two selenium compounds.
(§2) Animals: Se-deficient male Kunming mice (body weight: 20-23 g) were purchased from the animal center of Anhui Medical University. Drugs Administration: 35 mice were randomly divided into 5 groups with 7 mice in each group. The mice in the control group were injected with normal saline, and those in other groups were injected respectively with different doses of sodium selenite and sodium selenosulfate (0.5 and 1 mg Se/kg) for 7 consecutive days. Biochemical parameters: 24 hours after the last Se administration, blood was sampled from ophthalmic veins to obtain serum by centrifugation, and then the Se form and glutathione peroxidase (GPx) activity therein were determined. Meanwhile, liver and kidney were excised and stored at −30° C., and a part of them were used to determine Se. A part of livers and kidneys were homogenized and centrifuged to obtain supernatant, and then GPx activity and glutathione S-transferase (GST) activity in livers were determined. Statistical analysis: Data were expressed as mean±SD. The differences between the groups were examined using ANOVA. A p value less than 0.05 was considered statistically significant.

[2] = system: Human hepatoma cells (HepG2); experiment: Cell proliferation assay (MTT, day 0-6); assay type: cell-based; settings: 12.5 μM Se, day 0-6, MTT; FIG. 7B
Procedure: (§3) Cell culture: Human hepatoma cells (HepG2) and human colorectal cancer cells (CaCo2) were cultivated at 37° C. under 5% CO2 by using EMEM cell culture media containing 10% Fetal Bovine serum. Cell killing assay: the tumor cells were added into a 96-well plate with a density of 5000 cells/well for 24 hours, and then the culture media were changed to those with different Se concentrations. At 72 hours, the cell numbers were determined by MTT protocol. Each treatment was conducted in 3 parallels, and the data were expressed by percent relative to cell numbers when no Se was added. Cell proliferation assay: HepG2 or CaCo2 cells were added into a 96-well plate with a density of 1000 cells/well for 24 hours, and then the culture media were changed to those with 12.5 μM Se. The day was defined as day 0. The cell numbers were determined by MTT protocol on day 0, 2, 4 and 6, respectively. Each treatment was conducted with 8 parallels, and the data were expressed with percent relative to the cell numbers on day 0. MTT assay: Each well was added with 20 μL MTT (5 mg/mL) 4 hours prior to the end of culture. After the culture was ended, the supernatant was discarded, and the formazan particles were dissolved in HCl-isopropanol (10 μL/well). The readings were recorded at 595 nm on a microplate reader.

[3] = system: Se-sufficient male Kunming mice; experiment: Toxicity to normal tissues in Se-sufficient mice, i.p. once daily for 14 days; assay type: in vivo; settings: for mortality: FIG. 3; for hepatic tissue slices with hydropic or fatty degeneration / serum ALT and AST activity (hepatotoxicity): 2 mg Se/kg, 14 days; for hepatic tissue slices with hydropic or fatty degeneration: HE stain, selenite moderate (FIG. 5), selenosulfate slight (FIG. 6); for serum ALT and AST activity (hepatotoxicity): FIG. 4; for suppression of the growth of the mice (body weight): 2 and 3 mg Se/kg, same Se levels compared, FIG. 2
Procedure: Animals: Se-sufficient male Kunming mice (body weight: 23±1 g) were purchased from the Shanghai Laboratory Animal Center, Chinese Academy of Sciences. Drugs Administration: 50 mice were randomly divided into 5 groups with 10 mice in each group. The mice in the control group were injected intraperitoneally with normal saline, and the other groups were injected with sodium selenite (2 groups) and sodium selenosulfate (2 groups) respectively at 2 and 3 mg Se/kg once daily for 14 consecutive days. The mice in low dosage groups were sacrificed 24 hours after the last Se administration. Animal status: The body weight and dead status of the mice were recorded every day. Biochemical parameters: Blood was sampled from ophthalmic veins for determining serum ALT activity and AST activity. Pathology: Liver was excised for the determination. The slice was dyed by using HE. Statistical analysis: Data were expressed as mean±SD. The differences between the groups were examined using ANOVA. A p value less than 0.05 was considered statistically significant.

[4] = Se-supplementing effect in Se-deficient mice: Se level in serum, liver and kidney; assay type: in vivo; settings: mean±SD; for Serum Se: relative to control 1.00 (control 0.07 μg/mL serum); for Liver Se: relative to control 1.00 (control 0.15 μg/g liver); for Kidney Se: relative to control 1.00 (control 0.44 μg/g kidney)
Procedure: as §1, §2

[5] = system: glutathione peroxidase (GPx); experiment: Se-supplementing effect in Se-deficient mice: GPx activity in serum, liver and kidney; assay type: in vivo; settings: mean±SD; for Liver GPx: relative to control 1.00 (control 88.5 unit/mg protein); for Kidney GPx: relative to control 1.00 (control 142.8 unit/mg protein); for Serum GPx: relative to control 1.00 (control 525.5 unit/mL serum)
Procedure: as §1, §2

[6] = system: Human hepatoma cells (HepG2); experiment: Cell killing assay (MTT, 72 hours); assay type: cell-based; settings: FIG. 7A
Procedure: as §3

[7] = system: hepatoma H22 cell; experiment: Treatment of mice bearing H22 ascites with cisplatin with or without sodium selenosulfate; assay type: in vivo; settings: for Survival time of dead mice: mean±SD
Procedure: Animals: Se-sufficient male Kunming mice (body weight: 20-23 g) were purchased from Shanghai Laboratory Animal Center, Chinese Academy of Sciences. Drugs Administration: 48 mice were divided randomly into 6 groups with 8 mice in each group. Each mouse was inoculated intraperitoneally with hepatoma H22 cell suspension (20×10^6 cells). The groups were classified into 3 cisplatin groups, 2 cisplatin plus Se-supplementing groups (the groups administrated with 8 and 10 mg/kg doses of cisplatin were treated with 0.6 and 0.75 mg Se/kg doses of sodium selenosulfate, respectively) and 1 control group in terms of the administration doses (5, 8 and 10 mg/kg) of cisplatin. The experiments were carried out with one week as a cycle. The experiments with cisplatin doses of 5 and 8 mg/kg were carried out for total 4 cycles, and those with cisplatin dose of 10 mg/kg were performed for total 3 cycles. From the first day of each cycle, the mice in cisplatin groups was intraperitoneally injected with the corresponding concentrations of cisplatin, and the mice in cisplatin plus Se-supplementing groups were injected intraperitoneally with the corresponding sodium selenosulfate doses of 0.6 and 0.75 mg Se/kg respectively 4 hours before the intraperitoneal injection of cisplatin. The treatment was performed for 5 consecutive days. The first cisplatin chemotherapy started at 48 hours after the inoculation of tumor cells. The animal status was recorded and the development of malignant ascites was observed. Statistical analysis: Data were expressed as mean±SD. The differences between the groups were examined using ANOVA. A p value less than 0.05 was considered statistically significant.

[8] = 2 mg Se/kg i.p. once daily 14 days
[9] = 3 mg Se/kg i.p. once daily 14 days
[10] = cisplatin 5 mg/kg i.p., 4 cycles
[11] = cisplatin 8 mg/kg i.p., 4 cycles
[12] = cisplatin 10 mg/kg i.p., 3 cycles

SMILES	Liver GST ([1]; 0.5 mg/kg i.p. 7 days)	Liver GST ([1]; 1.0 mg/kg i.p. 7 days)	mortality [3, 8]	hepatic tissue slices with hydropic or fatty degeneration [3]	serum ALT and AST activity (hepatotoxicity) [3]	mortality [3, 9] [%]	suppression of the growth of the mice (body weight) [3]	Liver GPx ([5]; 0.5 mg/kg i.p. 7 days)	Kidney GPx ([5]; 0.5 mg/kg i.p. 7 days)	Serum GPx ([5]; 0.5 mg/kg i.p. 7 days)	Liver GPx ([5]; 1.0 mg/kg i.p. 7 days)	Kidney GPx ([5]; 1.0 mg/kg i.p. 7 days)	Serum GPx ([5]; 1.0 mg/kg i.p. 7 days)	also measured
O=S(=O)([O-])[Se-].[Na+].[Na+] [Sodium selenosulfate, sodium selenosulfate]	1.47 ± 0.29	2.69 ± 0.23	all the mice treated with sodium selenosulfate survived	20%	such phenomenon was not found	20	could suppress the growth of the mice as compared with the control	18.8 ± 0.19	7.74 ± 0.19	3.10 ± 0.25	22.2 ± 0.16	9.09 ± 0.18	4.41 ± 0.24	suppression of proliferation of HepG2 cells [2]: fully suppressed the proliferation of HepG2 cells; Serum Se ([4]; 0.5 mg/kg i.p. 7 days): 5.69 ± 0.13; Liver Se ([4]; 0.5 mg/kg i.p. 7 days): 11.2 ± 0.09; Kidney Se ([4]; 0.5 mg/kg i.p. 7 days): 2.85 ± 0.10; Serum Se ([4]; 1.0 mg/kg i.p. 7 days): 5.24 ± 0.39; Liver Se ([4]; 1.0 mg/kg i.p. 7 days): 15.2 ± 0.09; Kidney Se ([4]; 1.0 mg/kg i.p. 7 days): 3.90 ± 0.14; killing effect on HepG2 cells [6]: dose-dependent profile on killing HepG2 cells at levels of 6-18 μM
O=[Se](O)O [Sodium selenite, sodium selenite]	1.64 ± 0.23	2.44 ± 0.14	20%	up to 80%	made ALT and AST increased significantly	90	significantly stronger than that of sodium selenosulfate	19.8 ± 0.08	8.74 ± 0.14	2.97 ± 0.37	22.2 ± 0.10	10.2 ± 0.14	4.18 ± 0.26	
N.N.[Cl][Pt][Cl] [Cisplatin, cisplatin]														suppression of the development of malignant ascites ([7]; cisplatin 5 mg/kg): could not suppress the rapid development of malignant ascites; Cure rate [7, 10]: 0%; Death rate [7, 10]: 100%; Survival time of dead mice [7, 10]: 20 ± 7 days; Cure rate [7, 11]: 0%; Death rate [7, 11]: 100%; Survival time of dead mice [7, 11]: 31 ± 12 days; Cure rate [7, 12]: 25%; Death rate [7, 12]: 75%; Survival time of dead mice [7, 12]: 21 ± 9 days; suppression of the development of malignant ascites ([7]; cisplatin 8 and 10 mg/kg): could efficiently suppress the development of malignant ascites
